For assay [1], the target named is T1, Mu-type opioid receptor (Rattus norvegicus, UniProt P33535). Kind of assay: mu-2 receptor binding affinity in rat brain by 3H [d-Ala2, (N-Me)Phe4, Gly5-ol] enkephalin displacement. The format is tissue-based.
For assay [2], the target named is T1, Mu-type opioid receptor. Kind of assay: mu-1 receptor binding affinity in rat brain by 3H [d-Ala2, d-Leu5] enkephalin displacement. The format is tissue-based.
Assay [3] deals with Mus musculus. Put plainly: Area under the antinociceptive effect time curve after 4 mg/kg administration in mice. It counts as functional.
In assay [4] the test system is Mus musculus. Put plainly: Area under the antinociceptive effect time curve was determined after administration of 8 mg/kg in mice. It counts as functional.
In assay [5] the test system is Mus musculus. Kind of assay: Area under the antinociceptive effect time curve after 2 mg/kg administration in mice. The format is functional.

T1 sequence (P33535 whole entry): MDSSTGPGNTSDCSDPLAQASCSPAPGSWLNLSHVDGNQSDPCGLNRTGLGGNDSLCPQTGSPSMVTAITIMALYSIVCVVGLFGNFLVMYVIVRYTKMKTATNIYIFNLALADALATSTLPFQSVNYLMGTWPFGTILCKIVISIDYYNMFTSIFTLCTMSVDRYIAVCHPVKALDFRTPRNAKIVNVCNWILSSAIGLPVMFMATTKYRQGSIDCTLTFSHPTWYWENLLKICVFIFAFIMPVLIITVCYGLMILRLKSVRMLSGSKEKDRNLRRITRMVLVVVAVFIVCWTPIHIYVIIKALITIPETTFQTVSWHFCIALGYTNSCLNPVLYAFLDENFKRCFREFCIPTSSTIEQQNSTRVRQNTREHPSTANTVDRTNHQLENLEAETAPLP

With `CN1CCC23c4c5ccc(O)c4O[C@H]2[C@@H](OC2OC(CO)[C@H](O)C(O)C2O)C=C[C@H]3[C@H]1C5` (some centres undefined), the Ki worked out at 4.8 nM on Mu-type opioid receptor [1] and 1.2 nM on Mu-type opioid receptor [2]. Also, the AUEC in the assay on Mus musculus [3] is on record as 686 A% min-1; with Mus musculus [4] it was 2397 A% min-1; in the assay on Mus musculus [5], 682 %·min.
`CC1OC(O[C@H]2C=C[C@H]3[C@H]4Cc5ccc(O)c6c5C3(CCN4C)[C@H]2O6)C(O)C(O)C1O` (some centres undefined): the results for the inhibition constant Ki on Mu-type opioid receptor [1] and on Mu-type opioid receptor [2] were 6.2 nM and 0.17 nM, respectively. The AUEC came to 250 A% min-1 with Mus musculus [3] and 421 %·min in the assay on Mus musculus [5].
On to `C=CCN1CC[C@]23c4c5ccc(O)c4O[C@H]2[C@@H](O[C@@H]2O[C@@H](C(=O)O)[C@@H](O)[C@H](O)[C@@H]2O)C=C[C@H]3[C@H]1C5`, for which the Ki at Mu-type opioid receptor [1] was 10 nM; at Mu-type opioid receptor [2], 0.2 nM. Further, the AUEC with Mus musculus [3] turned out to be 147 A% min-1; in the assay with Mus musculus [4], 492 A% min-1; with Mus musculus [5], 221 %·min.
With `O=C(O)CN1CC[C@]23c4c5ccc(O)c4O[C@H]2[C@@H](O[C@@H]2O[C@@H](C(=O)O)[C@@H](O)[C@H](O)[C@@H]2O)C=C[C@H]3[C@H]1C5`, the inhibition constant (Ki) on Mu-type opioid receptor [1] turned out to be 1620 nM; on Mu-type opioid receptor [2], 33 nM. Also, the AUEC was 45 A% min-1 in the assay on Mus musculus [3], 322 A% min-1 in the assay on Mus musculus [4] and 266 %·min with Mus musculus [5].
As for `CN1CC[C@]23c4c5ccc(O)c4O[C@H]2[C@@H](O[C@@H]2O[C@H](C(=O)O)C[C@H](O)[C@@H]2O)C=C[C@H]3[C@H]1C5`, the Ki was determined as 172 nM at Mu-type opioid receptor [1] and 0.6 nM on Mu-type opioid receptor [2]. Also, the AUEC is reported as 80 A% min-1 in the assay with Mus musculus [3], 380 A% min-1 with Mus musculus [4] and 35 %·min in the assay on Mus musculus [5].
With `CN1CC[C@]23c4c5ccc(O)c4O[C@H]2[C@@H](OC2O[C@@H](C(=O)O)CC(O)C2O)C=C[C@H]3[C@H]1C5` (some centres undefined), the inhibition constant (Ki) worked out at 57 nM on Mu-type opioid receptor [1] and 1.9 nM on Mu-type opioid receptor [2]. Moreover, the values for the AUEC with Mus musculus [3] and in the assay on Mus musculus [5] were 365 A% min-1 and 18 %·min, respectively. In addition, in the assay on Mus musculus [4], the Activity was 1046 A% min-1.
Turning to `CN1CC[C@]23c4c5ccc(O)c4O[C@H]2[C@@H](O)C=C[C@H]3[C@H]1C5` [MORPHINE], the AUEC with Mus musculus [3] is 1987 A% min-1.
With `O=C(O)[C@@H]1O[C@@H](O[C@H]2C=C[C@H]3[C@H]4Cc5ccc(O)c6c5C3(CCN4CC3CC3)[C@H]2O6)[C@@H](O)[C@@H](O)[C@@H]1O`, the values for the Ki at Mu-type opioid receptor [1] and at Mu-type opioid receptor [2] were 3.5 nM and 0.06 nM, respectively. The results for the AUEC in the assay with Mus musculus [3], in the assay with Mus musculus [4] and with Mus musculus [5] were 599 A% min-1, 266 A% min-1 and 126 %·min, respectively.
For `O=C(O)[C@@H]1O[C@@H](O[C@H]2CC[C@H]3[C@H]4Cc5ccc(O)c6c5[C@@]3(CCN4)[C@H]2O6)[C@@H](O)[C@@H](O)[C@@H]1O`, the AUEC worked out at 2461 A% min-1 in the assay with Mus musculus [3] and 2196 %·min in the assay with Mus musculus [5].
As for `CN1CCC23c4c5ccc(O)c4O[C@H]2[C@@H](O[C@@H]2O[C@@H](C(=O)O)[C@@H](O)[C@H](O)[C@@H]2O)CC[C@H]3[C@H]1C5`, the Ki at Mu-type opioid receptor [1] was 5.7 nM; on Mu-type opioid receptor [2], 0.25 nM. Further, the AUEC turned out to be 1885 A% min-1 with Mus musculus [3] and 1667 %·min in the assay on Mus musculus [5].
For `COc1ccc2c3c1O[C@H]1[C@@H](O[C@@H]4O[C@@H](C(=O)O)[C@@H](O)[C@H](O)[C@@H]4O)C=C[C@H]4[C@@H](C2)N(C)CC[C@@]341`, the Ki came out at 5700 nM at Mu-type opioid receptor [1] and 85 nM at Mu-type opioid receptor [2].
As for `CN1CCC23c4c5ccc(O)c4O[C@H]2[C@@H](OC2CCCC(C(=O)O)O2)C=C[C@H]3[C@H]1C5` (some centres undefined), the Ki at Mu-type opioid receptor [1] came to 168 nM; at Mu-type opioid receptor [2] it was 0.51 nM. For the same compound, the AUEC in the assay on Mus musculus [3] was 26 A% min-1; in the assay with Mus musculus [4] it was 478 A% min-1; with Mus musculus [5] it was 230 %·min.
For `CN1CCC23c4c5ccc(O)c4O[C@H]2[C@@H](OC2OC(C(=O)O)=CC(O)C2O)C=C[C@H]3[C@H]1C5` (some centres undefined), the Ki was determined as 48 nM on Mu-type opioid receptor [1] and 1.4 nM at Mu-type opioid receptor [2]. Besides, the AUEC with Mus musculus [3] is 759 A% min-1; in the assay on Mus musculus [4], 701 A% min-1; with Mus musculus [5], 651 %·min.
With `O=C(O)[C@@H]1O[C@@H](O[C@H]2C=C[C@H]3[C@H]4Cc5ccc(O)c6c5[C@@]3(CCN4)[C@H]2O6)[C@@H](O)[C@@H](O)[C@@H]1O`, the results for the inhibition constant (Ki) on Mu-type opioid receptor [1] and on Mu-type opioid receptor [2] were 37 nM and 0.98 nM, respectively. Besides, the AUEC in the assay on Mus musculus [3] is 1614 A% min-1; with Mus musculus [4], 2487 A% min-1; in the assay with Mus musculus [5], 393 %·min.
The like results for `CN1CCC23c4c5ccc(O)c4O[C@H]2[C@@H](O[C@@H]2O[C@H](C(=O)O)[C@@H](O)[C@H]2O)C=C[C@H]3[C@H]1C5` were, in that order, 44 nM, 1.6 nM, 797 A% min-1, 596 A% min-1 and -56 %·min.
Take `CN1CCC23c4c5ccc(O)c4O[C@H]2[C@@H](O[C@@H]2O[C@@H](CO)[C@@H](O)[C@H](O)[C@@H]2O)CC[C@H]3[C@H]1C5`: the Ki came out at 2.5 nM on Mu-type opioid receptor [1] and 0.21 nM on Mu-type opioid receptor [2]. For the same compound, the values for the AUEC in the assay with Mus musculus [3] and in the assay with Mus musculus [5] were 2701 A% min-1 and 1490 %·min, respectively.
Regarding `CN1CCC23c4c5ccc(O)c4O[C@H]2[C@@H](OC2C=CC(O)C(C(=O)O)O2)C=C[C@H]3[C@H]1C5` (some centres undefined), the Ki was 178 nM at Mu-type opioid receptor [1] and 3.2 nM at Mu-type opioid receptor [2]. For the same compound, the AUEC in the assay with Mus musculus [3] stood at 130 A% min-1; in the assay on Mus musculus [5], 491 %·min. Further, in the assay with Mus musculus [4], the Activity is recorded as 851 A% min-1.
On to `CN1CC[C@]23c4c5ccc(O)c4O[C@H]2[C@@H](O[C@@H]2O[C@H](C(=O)O)[C@@H](O)[C@H](O)[C@H]2O)C=C[C@H]3[C@H]1C5` [MORPHINE GLUCURONIDE], for which the Ki on Mu-type opioid receptor [1] is 26 nM; at Mu-type opioid receptor [2], 1.5 nM. The AUEC with Mus musculus [3] is 1359 A% min-1.
For the compound `CN1CC[C@]23c4c5ccc(O)c4O[C@H]2[C@@H](OC2OC(CO)[C@H](O)C(O)C2O)C=C[C@H]3[C@H]1C5` (some centres undefined), the inhibition constant Ki amounted to 3.2 nM at Mu-type opioid receptor [1] and 0.28 nM on Mu-type opioid receptor [2]. Moreover, the AUEC is listed as 2283 A% min-1 in the assay on Mus musculus [3] and 1130 %·min in the assay on Mus musculus [5].
